The test system of data set [1] is Sprague-Dawley rats. To be noted: rat, in vivo.
For another data set, the system named is weanling pigs. To be noted: pig, in vivo.
For data set [2], the system named is Sprague-Dawley rats. To be noted: rat, in vivo. This is another data set of the same source.

Entries after “also recorded” stand apart in the source; their conditions may differ.

Turning to “7α, 15-benzylidene-3α,8αdiacetoxy-9α,12β-dimethyltrichothecan-12α-ol [EN139508]”, in the data set on Sprague-Dawley rats [1], the “duration of induced pattern” value is on record as “approximately 30 minutes”, the “induction of fed pattern of gut motility” value is “induced a dose-dependent fed pattern of gut motility”, the “onset time of action (duodenal site D1)” value is recorded as “approximately 60 seconds” and the “pattern of gut motor activity induced” value is on record as “induced a dose-dependent fed pattern of gut motility”. Also, in the data set with Sprague-Dawley rats [1], the “time of onset of action after administration” value is “approximately 60 seconds”.

Turning to `C[C@@H]1C[C@H]2O[C@@H]3[C@H](O)C[C@](C)([C@]24COC(c2ccccc2)O[C@@H]4C1=O)[C@@]3(C)O` (stereo partly drawn) [EN139522, 7α,15-benzylidene-9α, 12β-dimethyl-3α, 12α-dihydroxytricocethcan-8-one], in the data set with Sprague-Dawley rats [1], the “duration of action (fed pattern)” value came to 35 min, the “induction of fed pattern of gut motility” value was “induce a classic fed pattern” and the “time of onset of action after administration” value amounted to 20 s.

As to “7α,15-benzylidene-9α,12β-dimethyltrichothecan-3α,8α,12α-triol [EN139502]”, in the data set on Sprague-Dawley rats [1], the “delay before intensified fasting pattern” value is reported as “approximately 5 min”, the “effect on fasting pattern of gut motility” value is given as “intensify or enhance the fasting pattern” and the “induction of fed pattern of gut motility” value is on record as “did not induce the fed pattern gut motility”.

Regarding `CC1=C[C@H]2O[C@@H]3[C@H](O)C[C@](C)([C@@]2(CO)[C@H](O)C1=O)[C@]31CO1` [DON, 3α,7α, 15-trihydroxy-12,13-epoxy-trichothec-9-en-8-one], in the data set on weanling pigs, the emesis entry was “some emesis occurred”; the “food consumption in the Day 1 AM meal following the treat” value is “decreased food consumption”; the “persistence of effect on food consumption at Day 1 PM and following meals” value was “wore off by the next meal”. Besides, the “induction of fed pattern of gut motility” value in the data set on Sprague-Dawley rats [1] is on record as “induced the fed pattern of gut motility”. Further, in the data set on Sprague-Dawley rats [2], the food consumption result is “immediate and sustained reduction; also recorded: concentration-dependant reduction; also recorded: decrease”; the weight gain entry is “immediate and sustained reduction; also recorded: concentration-dependant reduction; also recorded: decrease”.

Source of the values: US20040102514A1 (priority 2003, published 2004).
